Laboratory results from article PMC9304322, “Targeting retinoic acid receptor alpha-corepressor interaction activates chaperone-mediated autophagy and protects against retinal degeneration” (Nature Communications, 2022).
Values joined by “and” are separate entries in the source; they are usually repeats but may differ in a detail not shown here. Equal entries are not always repeated. Where two headings read alike, the source gives them in different places.

Columns and labels:
[1] = Pharmacokinetic analysis, plasma and brain;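 on Fig. 3a level, MEAN: plasma concentration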;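 on Fig. 3a level, single animals 1-3: plasma concentration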;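 on Fig. 3b level, MEAN: brain concentration in ng/g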;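 on Fig. 3b level, single animals 1-3: brain concentration in ng/g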; assay type: in vivo, ICR (CD-1) male mice; parameters: Fig. 3a level, single animals 1-3 / Fig. 3a level, MEAN / Fig. 3b level, single animals 1-3 / Fig. 3b level, MEAN: unit not given here; conditions: for Kp at 0.083 h / Kp at 0.25 h / Kp at 0.5 h / Kp at 1 h / Kp at 2 h / Kp at 4 h / Kp at 8 h / Kp at 24 h / half-life: male, ICR (CD-1), mouse; for half-life: mice
Method: ICR (CD-1) male mice were fasted at least three hours and water was available ad libitum before the study. Animals were housed in a controlled environment, target conditions: temperature 18 to 29 °C, relative humidity 30 to 70%. Temperature and relative humidity was monitored daily. An electronic time-controlled lighting system was used to provide a 12 h light/12 h dark cycle. 3 mice for each indicated time point were administered 30 mg/Kg CA39 or CA77 by oral gavage or 1 mg/Kg CA39 or CA77 by intravenous injection using 30% PEG-400, 65% D5W (5% dextrose in water), 5% Tween-80 vehicle. Mice were sacrificed, and brain samples were harvested at […], 0.25 h, 0.5 h, 1 h, 2 h, 4 h, 8 h, 24 h, and analyzed for CA39 or CA77 levels using LC-MS/MS. Pharmacokinetics parameters were calculated using Phoenix WinNonlin 6.3. Experiments performed at SIMM-SERVIER joint Biopharmacy Laboratory.

[2] = In vitro solubility by nephelometry; assay type: physicochemical; conditions: in words
Method: In vitro solubility in the following conditions A) HBSS/HEPES 10 mM/BSA 0.1% pH 6 B) HBSS/HEPES 10 mM/BSA 0.1% pH 7.4 C) TRIS/BSA 0.1% PBS (pH 7.4 and at indicated doses were measured by Nephelometry using the NEPHELOstar Galaxy apparatus (BMG Lab Technologies). In vitro stability in human, mouse and rat liver microsomes and permeability using a bidirectional permeability assay with CaCo-2 cells (pH 6.5/7.4) assays were performed with standard methodology and analyzed by LC-MS/MS. at SIMM-SERVIER joint Biopharmacy Laboratory. ADME properties for CA39 and CA77 were predicted by QikProp (Schrödinger, LLC, Releases 2016-2020) software.

With `Clc1ccc2c(c1)OCC(c1ccc(-c3ccccc3)cc1)=N2` [CA39] the “Fig. 3a level, MEAN” value ([1]; IV, Time 0.083 h) was 61.1254, the “Fig. 3b level, MEAN” value ([1]; IV, Time 0.083 h) was 61.1254 and the “Fig. 3a level, MEAN” value ([1]; IV, Time 0.25 h) was 57.4762. The “Fig. 3a level, single animals 1-3” value ([1]; IV, Time 0.25 h) was 71.3655 and 52.5276 and 48.5355, the “Fig. 3b level, MEAN” value ([1]; IV, Time 0.25 h) was 421.667 and the “Fig. 3b level, single animals 1-3” value ([1]; IV, Time 0.25 h) was 231 and 301 and 733. For the same compound, the “Fig. 3a level, MEAN” value ([1]; IV, Time 0.5 h) was 96.4163, the “Fig. 3a level, single animals 1-3” value ([1]; IV, Time 0.5 h) was 97.156 and 95.5316 and 96.5614 and the “Fig. 3b level, single animals 1-3” value ([1]; IV, Time 0.5 h) was 253.229 and 219.924 and 96.4385. For the same compound, the “Fig. 3a level, single animals 1-3” value ([1]; IV, Time 1 h) was 65.9772 and 7.434 and 72.9585, the “Fig. 3b level, single animals 1-3” value ([1]; IV, Time 1 h) was 838.595 and 293.717 and 133.533 and the “Fig. 3a level, MEAN” value ([1]; IV, Time 2 h) was 127.026. The “Fig. 3a level, single animals 1-3” value ([1]; IV, Time 2 h) was 125.63 and 157.282 and 98.1671, the “Fig. 3b level, MEAN” value ([1]; IV, Time 2 h) was 775.11 and the “Fig. 3b level, single animals 1-3” value ([1]; IV, Time 2 h) was 875.96 and 812.85 and 636.52. The “Fig. 3a level, MEAN” value ([1]; IV, Time 4 h) was 46.5654, the “Fig. 3a level, single animals 1-3” value ([1]; IV, Time 4 h) was 39.4404 and 55.2956 and 44.9603 and the “Fig. 3b level, MEAN” value ([1]; IV, Time 4 h) was 580.088. For the same compound, the “Fig. 3b level, single animals 1-3” value ([1]; IV, Time 4 h) was 625.12 and 582.925 and 532.22, the “Fig. 3a level, single animals 1-3” value ([1]; IV, Time 8 h) was 53.1345 and 36.7923 and 35.4264 and the “Fig. 3b level, single animals 1-3” value ([1]; IV, Time 8 h) was 688.34 and 475.587 and 740.905. The “Fig. 3a level, MEAN” value ([1]; IV, Time 24 h) was 8.834, the “Fig. 3a level, single animals 1-3” value ([1]; IV, Time 24 h) was 7.122 and 12.7302 and 6.65 and the “Fig. 3b level, single animals 1-3” value ([1]; IV, Time 24 h) was 137.514 and 156.133 and 197.201. The “B/P, Brian/Plasma” value ([1]; P.O., Time 0.25 h, individual animals) was 3.427 and 5.487, the “B/P, Brian/Plasma” value ([1]; P.O., Time 0.5 h, individual animals) was 1.74 and 1.607 and the “B/P, Brian/Plasma” value ([1]; P.O., Time 1 h, individual animals) was 6.477 and 4.807. For the same compound, the “B/P, Brian/Plasma” value ([1]; P.O., Time 2 h, individual animals) was 7.798 and 6.806, the “B/P, Brian/Plasma” value ([1]; P.O., Time 4 h, individual animals) was 5.185 and 9.171 and 14.1075 and the “B/P, Brian/Plasma” value ([1]; P.O., Time 8 h, individual animals) was 9.709 and 14.5255. The “B/P, Brian/Plasma” value ([1]; P.O., Time 24 h, individual animals) was 21.0683, the “Fig. 3b level, MEAN” value ([1]; PO, Time 0.25 h) was 110.007 and the “Fig. 3b level, single animals 1-3” value ([1]; PO, Time 0.25 h) was 143.332 and 91.145 and 95.5425. For the same compound, the “Fig. 3b level, MEAN” value ([1]; PO, Time 0.5 h) was 246.705, the “Fig. 3b level, single animals 1-3” value ([1]; PO, Time 0.5 h) was 250.188 and 244.993 and 244.933 and the “Fig. 3b level, single animals 1-3” value ([1]; PO, Time 1 h) was 302.13 and 49.5585 and 266.305. For the same compound, the “Fig. 3a level, MEAN” value ([1]; PO, Time 2 h) was 103.157, the “Fig. 3a level, single animals 1-3” value ([1]; PO, Time 2 h) was 111.712 and 104.237 and 93.5216 and the “Fig. 3b level, MEAN” value ([1]; PO, Time 2 h) was 582.568. For the same compound, the “Fig. 3b level, single animals 1-3” value ([1]; PO, Time 2 h) was 673.81 and 487.02 and 586.875, the “Fig. 3a level, MEAN” value ([1]; PO, Time 4 h) was 73.9526 and the “Fig. 3a level, single animals 1-3” value ([1]; PO, Time 4 h) was 120.568 and 63.5639 and 37.7259. The “Fig. 3b level, MEAN” value ([1]; PO, Time 4 h) was 609.462, the “Fig. 3b level, single animals 1-3” value ([1]; PO, Time 4 h) was 583.44 and 598.755 and 646.19 and the “Fig. 3a level, single animals 1-3” value ([1]; PO, Time 8 h) was 41.4288 and 48.9846 and 51.0072. The “Fig. 3b level, single animals 1-3” value ([1]; PO, Time 8 h) was 620.035 and 487.115 and 529.995, the “Fig. 3a level, MEAN” value ([1]; PO, Time 24 h) was 11.2914 and the “Fig. 3a level, single animals 1-3” value ([1]; PO, Time 24 h) was 11.8674 and 7.411 and 14.5959. The “Fig. 3b level, MEAN” value ([1]; PO, Time 24 h) was 118.958, the “Fig. 3b level, single animals 1-3” value ([1]; PO, Time 24 h) was 104.574 and 178.19 and 74.11 and the “B/P, Brian/Plasma” value ([1]; i.v., Time 0.083 h, individual animals) was 1.236 and 1.666. For the same compound, the “B/P, Brian/Plasma” value ([1]; i.v., Time 0.25 h, individual animals) was 1.735 and 1.969, the “B/P, Brian/Plasma” value ([1]; i.v., Time 0.5 h, individual animals) was 2.565 and 2.537 and the “B/P, Brian/Plasma” value ([1]; i.v., Time 1 h, individual animals) was 6.667 and 3.6501. For the same compound, the “B/P, Brian/Plasma” value ([1]; i.v., Time 2 h, individual animals) was 3.096 and 5.978, the “B/P, Brian/Plasma” value ([1]; i.v., Time 4 h, individual animals) was 10.8283 and 14.3725 and the “B/P, Brian/Plasma” value ([1]; i.v., Time 8 h, individual animals) was 13.2396 and 14.9605. The “B/P, Brian/Plasma” value ([1]; i.v., Time 24 h, individual animals) was 13.9974, the Kp at 0.083 h ([1]; brain, iv, 1 mg/Kg, i.v., Time 0.083 h, individual animals, read-out: B/P, Brian/Plasma) was 1.37 and the Kp at 0.083 h ([1]; brain, iv, 1 mg/Kg, i.v., Time 0.083 h, mean, read-out: B/P, Brian/Plasma, Mean) was 1.42. The Kp at 0.25 h ([1]; brain, iv, 1 mg/Kg, i.v., Time 0.25 h, individual animals, read-out: B/P, Brian/Plasma) was 2.01, the Kp at 0.25 h ([1]; brain, iv, 1 mg/Kg, i.v., Time 0.25 h, mean, read-out: B/P, Brian/Plasma, Mean) was 1.9 and the Kp at 0.5 h ([1]; brain, iv, 1 mg/Kg, i.v., Time 0.5 h, individual animals, read-out: B/P, Brian/Plasma) was 2.58. It also gave a Kp at 0.5 h ([1]; brain, iv, 1 mg/Kg, i.v., Time 0.5 h, mean, read-out: B/P, Brian/Plasma, Mean) of 2.56, a Kp at 1 h ([1]; brain, iv, 1 mg/Kg, i.v., Time 1 h, individual animals, read-out: B/P, Brian/Plasma) of 4.58 and a Kp at 1 h ([1]; brain, iv, 1 mg/Kg, i.v., Time 1 h, mean, read-out: B/P, Brian/Plasma, Mean) of 4.11. It also gave a Kp at 2 h ([1]; brain, iv, 1 mg/Kg, i.v., Time 2 h, individual animals, read-out: B/P, Brian/Plasma) of 5.36, a Kp at 2 h ([1]; brain, iv, 1 mg/Kg, i.v., Time 2 h, mean, read-out: B/P, Brian/Plasma, Mean) of 4.81 and a Kp at 4 h ([1]; brain, iv, 1 mg/Kg, i.v., Time 4 h, individual animals, read-out: B/P, Brian/Plasma) of 14.8. For the same compound, the Kp at 4 h ([1]; brain, iv, 1 mg/Kg, i.v., Time 4 h, mean, read-out: B/P, Brian/Plasma, Mean) was 13.3, the Kp at 8 h ([1]; brain, iv, 1 mg/Kg, i.v., Time 8 h, individual animals, read-out: B/P, Brian/Plasma) was 11.7 and the Kp at 8 h ([1]; brain, iv, 1 mg/Kg, i.v., Time 8 h, mean, read-out: B/P, Brian/Plasma, Mean) was 13.3. The Kp at 24 h ([1]; brain, iv, 1 mg/Kg, i.v., Time 24 h, individual animals, read-out: B/P, Brian/Plasma) was 14.7, the Kp at 24 h ([1]; brain, iv, 1 mg/Kg, i.v., Time 24 h, mean, read-out: B/P, Brian/Plasma, Mean) was 14.2 and the Kp at 0.25 h ([1]; brain, po, 30 mg/Kg, P.O., Time 0.25 h, individual animals, read-out: B/P, Brian/Plasma) was 4.01. It also gave a Kp at 0.25 h ([1]; brain, po, 30 mg/Kg, P.O., Time 0.25 h, mean, read-out: B/P, Brian/Plasma, Mean) of 4.31, a Kp at 0.5 h ([1]; brain, po, 30 mg/Kg, P.O., Time 0.5 h, individual animals, read-out: B/P, Brian/Plasma) of 1.82 and a Kp at 0.5 h ([1]; brain, po, 30 mg/Kg, P.O., Time 0.5 h, mean, read-out: B/P, Brian/Plasma, Mean) of 1.72. It also gave a Kp at 1 h ([1]; brain, po, 30 mg/Kg, P.O., Time 1 h, individual animals, read-out: B/P, Brian/Plasma) of 5.37, a Kp at 1 h ([1]; brain, po, 30 mg/Kg, P.O., Time 1 h, mean, read-out: B/P, Brian/Plasma, Mean) of 5.55 and a Kp at 2 h ([1]; brain, po, 30 mg/Kg, P.O., Time 2 h, individual animals, read-out: B/P, Brian/Plasma) of 7.84. For the same compound, the Kp at 2 h ([1]; brain, po, 30 mg/Kg, P.O., Time 2 h, mean, read-out: B/P, Brian/Plasma, Mean) was 7.48, the Kp at 4 h ([1]; brain, po, 30 mg/Kg, P.O., Time 4 h, mean, read-out: B/P, Brian/Plasma, Mean) was 9.49 and the Kp at 8 h ([1]; brain, po, 30 mg/Kg, P.O., Time 8 h, individual animals, read-out: B/P, Brian/Plasma) was 16.6. The Kp at 8 h ([1]; brain, po, 30 mg/Kg, P.O., Time 8 h, mean, read-out: B/P, Brian/Plasma, Mean) was 13.6, the Kp at 24 h ([1]; brain, po, 30 mg/Kg, P.O., Time 24 h, individual animals, read-out: B/P, Brian/Plasma) was 11.6 and the Kp at 24 h ([1]; brain, po, 30 mg/Kg, P.O., Time 24 h, mean, read-out: B/P, Brian/Plasma, Mean) was 17.9. It also gave a half-life ([1]; brain, IV 1 mg/kg, read-out: Half-life in brain (converted)) of 8 h, a half-life ([1]; brain, PO 30 mg/kg, read-out: Half-life in brain (converted)) of 10 h and a half-life ([1]; plasma, IV 1 mg/kg, read-out: Half-life in plasma (converted)) of 8.2 h. For the same compound, the half-life ([1]; plasma, PO 30 mg/kg, read-out: Half-life in plasma (converted)) was 7.5 h and the solubility [2] was “reasonable”.
